Active and inactive are the calls of the source. The rule behind the calls is not given here.
Tested on: rodent carcinogenicity bioassays, tumor incidence
Assay: CCRIS carcinogenicity studies
Description: The CCRIS database contains chemical records with carcinogenicity, mutagenicity, tumor promotion, and tumor inhibition test results. It was developed by the National Cancer Institute (NCI). Data are derived from studies cited in primary journals, current awareness tools, NCI reports, and other sources. Test results have been reviewed by experts in carcinogenesis and mutagenesis.
CCRIS provides historical information from the years 1985 - 2011. It is no longer updated.
This is an archive assay for CCRIS carcinogenicity studies.

In the case of `Cc1cc(C)nc(NS(=O)(=O)c2ccc(N)cc2)n1`, the carcinogen call (Species: RAT, Strain/Sex: F344/FEMALE, Route: ORAL, TRANS-PLACENTAL, Dose: 0, 10, 40, 600 1200, 2400 PPM IN DIET FOR 24 MO (PARENTS FED 0; 10; 600; 1200; 2400 PPM RESPECTIVELY IN DIET) (STUDY DUR, Dose: 0, 10, 40, 600 1200, 2400 PPM IN DIET FOR 24 MO (PARENTS FED 0; 10; 600; 1200; 2400 PPM RESPECTIVELY IN DIET) (STUDY DUR, Tumor Site: Type of Lesion: THYROID GLAND: FOLLICULAR CELL ADENOCARCINOMA) was “active; positive” and the carcinogen call (Species: RAT, Strain/Sex: F344/MALE, Route: ORAL, TRANS-PLACENTAL, Dose: 0, 10, 40, 600 1200, 2400 PPM IN DIET FOR 24 MO (PARENTS FED 0; 10; 600; 1200; 2400 PPM RESPECTIVELY IN DIET) (STUDY DUR, Dose: 0, 10, 40, 600 1200, 2400 PPM IN DIET FOR 24 MO (PARENTS FED 0; 10; 600; 1200; 2400 PPM RESPECTIVELY IN DIET) (STUDY DUR, Tumor Site: Type of Lesion: THYROID GLAND: FOLLICULAR CELL ADENOCARCINOMA) was “active; positive”.
For `ClC(Cl)(Cl)Cl`, the carcinogen call (Species: FISH, Strain/Sex: RAINBOW TROUT, Route: INTRAPERITONEAL, Dose: 0, 1 ML/KG AT 21 D INTERVALS FOR A TOTAL OF 7 DOSES (STUDY DURATION: 6 MO)) was “inactive; negative”, the carcinogen call (Species: MOUSE, Route: ORAL, GAVAGE, Tumor Site: Type of Lesion: LIVER: HEPATOMA, HEPATOCELLULAR CARCINOMA) was “active; positive” and the carcinogen call (Species: Mouse, Strain/Sex: BDF1/Female (50/group), Route: Inhalation, Dose: 0, 5, 25, 125 ppm (v/v) 6 hr/d, 5 d/wk for 104 wk, Dose: 0, 5, 25, 125 ppm (v/v) 6 hr/d, 5 d/wk for 104 wk, Tumor Site: Type of Lesion: Liver: hepatocellular carcinoma (2/50; 1/49; 33/50; 48/49), hepatocellular adenoma (2/50; 8/49; 17/50; 5/49). Adrenal Gl, Tumor Site: Type of Lesion: Liver: hepatocellular carcinoma (2/50; 1/49; 33/50; 48/49), hepatocellular adenoma (2/50; 8/49; 17/50; 5/49). Adrenal Gl) was “active; positive”. The carcinogen call (Species: Mouse, Strain/Sex: BDF1/Male (50/group), Route: Inhalation, Dose: 0, 5, 25, 125 ppm (v/v) 6 hr/d, 5 d/wk for 104 wk, Dose: 0, 5, 25, 125 ppm (v/v) 6 hr/d, 5 d/wk for 104 wk, Tumor Site: Type of Lesion: Liver: hepatocellular carcinoma (17/50; 12/50; 44/50; 47/50), hepatocellular adenoma (9/50; 10/50; 27/50; 16/50). Adrena, Tumor Site: Type of Lesion: Liver: hepatocellular carcinoma (17/50; 12/50; 44/50; 47/50), hepatocellular adenoma (9/50; 10/50; 27/50; 16/50). Adrena) was “active; positive (dose related metastasis of liver tumors to lung)”, the carcinogen call (Species: RAT, Route: SUBCUTANEOUS, Tumor Site: Type of Lesion: LIVER: HEPATOCELLULAR CARCINOMA) was “active; positive” and the carcinogen call (Species: Rat, Strain/Sex: F344/Female (50/group), Route: Inhalation, Dose: 0, 5, 25, 125 ppm (v/v) 6 hr/d, 5 d/wk for 104 wk, Dose: 0, 5, 25, 125 ppm (v/v) 6 hr/d, 5 d/wk for 104 wk, Tumor Site: Type of Lesion: Liver: hepatocellular carcinoma (0/50; 0/50; 3/50; 15/50), hepatocellular adenoma (0/50; 0/50; 40/50), Tumor Site: Type of Lesion: Liver: hepatocellular carcinoma (0/50; 0/50; 3/50; 15/50), hepatocellular adenoma (0/50; 0/50; 40/50)) was “active; positive”. The carcinogen call (Species: Rat, Strain/Sex: F344/Male (50/group), Route: Inhalation, Dose: 0, 5, 25, 125 ppm (v/v) 6 hr/d, 5 d/wk for 104 wk, Dose: 0, 5, 25, 125 ppm (v/v) 6 hr/d, 5 d/wk for 104 wk, Tumor Site: Type of Lesion: Liver: hepatocellular carcinoma (1/50; 0/50; 32/50), hepatocellular adenoma (0/50; 1/50; 21/50), Tumor Site: Type of Lesion: Liver: hepatocellular carcinoma (1/50; 0/50; 32/50), hepatocellular adenoma (0/50; 1/50; 21/50)) was “active; positive”.
With `O=C1OC(O)C(C(Cl)Cl)=C1Cl` (stereo unspecified) the carcinogen call (Species: RAT, Strain/Sex: WISTAR/FEMALE, Route: ORAL, Dose: 0, 0.6, 1.9, 6.6 MG/KG BW IN DRINKING WATER FOR 104 WK (STUDY DURATION: 104 WK), Dose: 0, 0.6, 1.9, 6.6 MG/KG BW IN DRINKING WATER FOR 104 WK (STUDY DURATION: 104 WK), Tumor Site: Type of Lesion: MAMMARY GLAND: ADENOCARCINOMA, FIBROADENOMA, HEMATOPOIETIC SYSTEM: LYMPHOMA OR LEUKEMIA, LIVER: CHOLANGIOMA, ADENOMA, AD, Tumor Site: Type of Lesion: MAMMARY GLAND: ADENOCARCINOMA, FIBROADENOMA, HEMATOPOIETIC SYSTEM: LYMPHOMA OR LEUKEMIA, LIVER: CHOLANGIOMA, ADENOMA, AD) was “active; positive” and the carcinogen call (Species: RAT, Strain/Sex: WISTAR/MALE, Route: ORAL, Dose: 0, 0.4, 1.3, 5 MG/KG BW IN DRINKING WATER FOR 104 WK (STUDY DURATION: 104 WK), Dose: 0, 0.4, 1.3, 5 MG/KG BW IN DRINKING WATER FOR 104 WK (STUDY DURATION: 104 WK), Tumor Site: Type of Lesion: SKIN (SUBCUTANEOUS TISSUE): BASAL CELL TUMOR, LUNG: ALVEOLAR/BRONCHIOLAR ADENOMA, LIVER: CHOLANGIOMA,ADENOMA, PANCREAS (, Tumor Site: Type of Lesion: SKIN (SUBCUTANEOUS TISSUE): BASAL CELL TUMOR, LUNG: ALVEOLAR/BRONCHIOLAR ADENOMA, LIVER: CHOLANGIOMA,ADENOMA, PANCREAS () was “active; positive”.
In the case of `O=NN(c1ccccc1)c1ccccc1`, the carcinogen call (Species: MOUSE, Strain/Sex: B6C3F1/FEMALE, Route: ORAL, Dose: 0, 2315, 5741 PPM IN DIET, TWA, Dose: 0, 2315, 5741 PPM IN DIET, TWA) was “inactive; negative”, the carcinogen call (Species: MOUSE, Strain/Sex: B6C3F1/MALE, Route: ORAL, Dose: 0, 10000, 20000 PPM IN DIET, Dose: 0, 10000, 20000 PPM IN DIET) was “inactive; negative” and the carcinogen call (Species: RAT, Strain/Sex: F344/FEMALE, Route: ORAL, Dose: 0, 1000, 4000 PPM IN DIET, Dose: 0, 1000, 4000 PPM IN DIET, Tumor Site: Type of Lesion: URINARY BLADDER: TRANSITIONAL CELL CARCINOMA) was “active; positive”. The carcinogen call (Species: RAT, Strain/Sex: F344/MALE, Route: ORAL, Dose: 0, 1000, 4000 PPM IN DIET, Dose: 0, 1000, 4000 PPM IN DIET, Tumor Site: Type of Lesion: INTEGUMENTARY SYSTEM: FIBROMA, URINARY BLADDER: TRANSITIONAL CELL CARCINOMA) was “active; positive”.
In the case of `N#CC(Br)Br`, the carcinogen call (Species: Mouse, Strain/Sex: B6C3F1/Female (50/group), Route: Oral, Dose: 0, 50, 100, 200 mg/l in drinking water for 2 yr, Dose: 0, 50, 100, 200 mg/l in drinking water for 2 yr, Tumor Site: Type of Lesion: Forestomach: squamous cell papilloma and squamous cell carcinoma combined (1/50, 0/50, 5/50, 14/50)) was “active; positive (ntp describes as clear evidence)”, the carcinogen call (Species: Mouse, Strain/Sex: B6C3F1/Male (50/group), Route: Oral, Dose: 0, 50, 100, 200 mg/l in drinking water for 2 yr, Dose: 0, 50, 100, 200 mg/l in drinking water for 2 yr, Tumor Site: Type of Lesion: Forestomach: squamous cell papilloma and squamous cell carcinoma combined (0/50, 1/50, 0/50, 5/50). Liver: hepatoblastom) was “active; positive (ntp describes as clear evidence)” and the carcinogen call (Species: Rat, Strain/Sex: F344/N / Female (50/group), Route: Oral, Dose: 0, 50, 100, 200 mg/l in drinking water for 2 yr, Dose: 0, 50, 100, 200 mg/l in drinking water for 2 yr, Tumor Site: Type of Lesion: Oral Cavity (oral mucosa or tongue): squamous cell papilloma (1/50, 0/50, 4/50, 0/50). Skin: squamous cell papilloma, ke) was “active; positive (ntp describes as some evidence)”. The carcinogen call (Species: Rat, Strain/Sex: F344/N / Male (50/group), Route: Oral, Dose: 0, 50, 100, 200 mg/l in drinking water for 2 yr, Dose: 0, 50, 100, 200 mg/l in drinking water for 2 yr, Tumor Site: Type of Lesion: Oral Cavity (oral mucosa or tongue): squamous cell papilloma and carcinoma combined (0/50, 0/50, 2/50, 5/50) (Statistica) was “active; positive (ntp describes as clear evidence)”.
In the case of `OC1c2nc3c(ccc4ccccc43)cc2C2OC2C1O` (stereo unspecified), the carcinogen call (Species: MOUSE, Strain/Sex: SWISS/FEMALE, Route: INTRAPERITONEAL, Dose: 0, 1.05 UMOL GIVEN AS 150 NMOL IN 5 µL DMSO WITHIN 24 HR OF BIRTH, 300 NMOL IN 10 µL DMSO ON D 8 OF LIFE, AND 600 NMOL I) was “inactive; negative” and the carcinogen call (Species: MOUSE, Strain/Sex: SWISS/MALE, Route: INTRAPERITONEAL, Dose: 0, 1.05 UMOL GIVEN AS 150 NMOL IN 5 µL DMSO WITHIN 24 HR OF BIRTH, 300 NMOL IN 10 µL DMSO ON D 8 OF LIFE, AND 600 NMOL I) was “inactive; negative”.
